Assay results taken from US9586961B2, “Homopiperazine derivatives as protein tyrosine kinase inhibitors and pharmaceutical use thereof” (LEO PHARMA A/S, priority 2010, dated 2017).

What was measured:
Assay type in all cases: biochemical
JAK1 = target: T1, JAK1 (Homo sapiens, UniProt P23458); test: JAK1 kinase assay (HTRF, inhibition of phosphorylation of a synthetic peptide); conditions: catalytic domain aa 850-1154, GST-tag; 7 μM ATP (Km); read-out: JAK1 kinase inhibitory activity (EC50)
T1 construct: JAK1 (aa 850-1154) and TYK2 (aa 871-1187) are expressed with an N-terminally fused GST-tag; GST (N); purchased Carna Biosciences, Inc; host or cells: baculovirus expression system
T1 sequence (P23458 850-1154): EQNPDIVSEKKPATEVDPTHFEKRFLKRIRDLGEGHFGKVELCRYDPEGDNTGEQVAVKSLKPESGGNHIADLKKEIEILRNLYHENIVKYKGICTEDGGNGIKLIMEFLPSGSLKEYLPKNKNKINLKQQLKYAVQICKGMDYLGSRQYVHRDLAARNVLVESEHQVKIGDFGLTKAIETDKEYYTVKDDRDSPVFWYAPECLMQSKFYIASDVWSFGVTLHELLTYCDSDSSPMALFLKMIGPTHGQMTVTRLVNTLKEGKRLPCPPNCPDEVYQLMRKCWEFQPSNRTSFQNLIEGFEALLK
Summary of the method: (§1)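 HTRF detection (streptavidin-XL665, cryptate anti-phospho antibody, overnight in the dark) after EDTA stop of a 20-30 min RT reaction on 1 μM TK substrate-biotin. Km-level ATP per kinase: 7 μM for JAK1 and 13 μM for TYK2, both N-terminal GST, with 50 nM SEB; 4 μM for JAK2 and 2 μM for JAK3, both His-tagged. Catalytic domains only; DMSO 0.75%.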

JAK2 = target: T2, JAK2 (Homo sapiens, UniProt O60674); test: JAK2 kinase assay (HTRF, inhibition of phosphorylation of a synthetic peptide); conditions: catalytic domain, His-tag; 4 μM ATP (Km); read-out: JAK2 kinase inhibitory activity (EC50)
T2 construct: All four purified enzymes contain only the catalytic domain; His (N); purchased Carna Biosciences, Inc; host or cells: baculovirus expression system
T2 sequence (O60674 849-1124 limits assumed): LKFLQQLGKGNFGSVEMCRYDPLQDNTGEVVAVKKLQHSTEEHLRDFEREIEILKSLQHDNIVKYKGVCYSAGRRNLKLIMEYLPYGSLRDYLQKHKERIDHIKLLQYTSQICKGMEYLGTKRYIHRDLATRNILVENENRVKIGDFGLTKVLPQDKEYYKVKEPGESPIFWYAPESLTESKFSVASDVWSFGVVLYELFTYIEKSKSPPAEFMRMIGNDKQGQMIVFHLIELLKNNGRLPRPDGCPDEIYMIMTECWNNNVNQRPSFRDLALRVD
Summary of the method: as §1

JAK3 = target: T3, JAK3 (Homo sapiens, UniProt P52333); test: JAK3 kinase assay (HTRF, inhibition of phosphorylation of a synthetic peptide); conditions: catalytic domain, His-tag; 2 μM ATP (Km); read-out: JAK3 kinase inhibitory activity (EC50)
T3 construct: All four purified enzymes contain only the catalytic domain; His (N); purchased Carna Biosciences, Inc; host or cells: baculovirus expression system
T3 sequence (P52333 822-1111 limits assumed): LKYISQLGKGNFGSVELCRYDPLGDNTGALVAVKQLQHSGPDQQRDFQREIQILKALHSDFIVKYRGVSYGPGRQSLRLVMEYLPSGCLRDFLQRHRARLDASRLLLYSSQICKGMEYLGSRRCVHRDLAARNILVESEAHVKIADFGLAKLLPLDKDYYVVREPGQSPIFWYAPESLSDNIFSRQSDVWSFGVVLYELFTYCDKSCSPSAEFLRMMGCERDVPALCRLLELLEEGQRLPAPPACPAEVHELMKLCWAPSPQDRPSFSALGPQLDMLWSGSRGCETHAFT
Summary of the method: as §1

SMILES	EC50 (JAK1) [nM]	EC50 (JAK2) [nM]	EC50 (JAK3) [nM]
O=C(c1cnsc1)N1CCN(c2ncnc3[nH]ccc23)CC2(CC2)C1 [Example 210, isothiazol-4-yl-[5-(7H-pyrrolo[2,3-d]pyrimidin-4-yl)-5,8-diazaspiro[2.6]nonan-8-yl]methanone]	100 to 1000	100 to 1000	100 to 1000
O=C(c1cnsc1)N1CCCN(c2ncnc3[nH]ccc23)CC12CC2 [Example 211, isothiazol-4-yl-[5-(7H-pyrrolo[2,3-d]pyrimidin-4-yl)-5,9-diazaspiro[2.6]nonan-9-yl]methanone]	100 to 1000	100 to 1000	100 to 1000
O=C(c1cc(O)[nH]n1)N1CCCN(c2ncnc3[nH]ccc23)CC12CC2 [Example 212, (5-hydroxy-1H-pyrazol-3-yl)-[5-(7H-pyrrolo[2,3-d]pyrimidin-4-yl)-5,9-diazaspiro[2.6]nonan-9-yl]methanone]	100 to 1000	100 to 1000	100 to 1000
O=C(c1cncc(F)c1)N1CCN(c2ncnc3[nH]ccc23)CC2(CC2)C1 [Example 213, (5-fluoro-3-pyridyl)-[5-(7H-pyrrolo[2,3-d]pyrimidin-4-yl)-5,8-diazaspiro[2.6]nonan-8-yl]methanone]	100 to 1000	100 to 1000	> 1000
O=C(c1cncc(F)c1)N1CCCN(c2ncnc3[nH]ccc23)CC12CC2 [Example 214, (5-fluoro-3-pyridyl)-[5-(7H-pyrrolo[2,3-d]pyrimidin-4-yl)-5,9-diazaspiro[2.6]nonan-9-yl]methanone]	100 to 1000	100 to 1000	100 to 1000
O=C(Cc1nnn[nH]1)N1CCN(c2ncnc3[nH]ccc23)CC2(CC2)C1 [Example 215, 1-[5-(7H-pyrrolo[2,3-d]pyrimidin-4-yl)-5,8-diazaspiro[2.6]nonan-8-yl]-2-(1H-tetrazol-5-yl)ethanone]	< 100	< 100	100 to 1000
O=C(c1cscn1)N1CCN(c2ncnc3[nH]ccc23)CC2(CC2)C1 [Example 216, [5-(7H-pyrrolo[2,3-d]pyrimidin-4-yl)-5,8-diazaspiro[2.6]nonan-8-yl]-thiazol-4-yl-methanone]	100 to 1000	100 to 1000	100 to 1000
Cc1cc(CC(=O)N2CCCN(c3ncnc4[nH]ccc34)CC23CC3)on1 [Example 217, 2-(3-methylisoxazol-5-yl)-1-[5-(7H-pyrrolo[2,3-d]pyrimidin-4-yl)-5,9-diazaspiro[2.6]nonan-9-yl]ethanone]	100 to 1000	100 to 1000	> 1000
CN(CC#N)C(=O)N1CCN(c2ncnc3[nH]ccc23)CC2(CC2)C1 [Example 218, N-(cyanomethyl)-N-methyl-5-(7H-pyrrolo[2,3-d]pyrimidin-4-yl)-5,8-diazaspiro[2.6]nonane-8-carboxamide]	100 to 1000	< 100	100 to 1000
N#CCN(CC#N)C(=O)N1CCN(c2ncnc3[nH]ccc23)CC2(CC2)C1 [Example 219, N,N-bis(cyanomethyl)-5-(7H-pyrrolo[2,3-d]pyrimidin-4-yl)-5,8-diazaspiro[2.6]nonane-8-carboxamide]	100 to 1000	< 100	100 to 1000
CN(CCC#N)C(=O)N1CCN(c2ncnc3[nH]ccc23)CC2(CC2)C1 [Example 220, N-(2-cyanoethyl)-N-methyl-5-(7H-pyrrolo[2,3-d]pyrimidin-4-yl)-5,8-diazaspiro[2.6]nonane-8-carboxamide]	100 to 1000	100 to 1000	100 to 1000
N#C[C@H]1CCCN1C(=O)N1CCN(c2ncnc3[nH]ccc23)CC2(CC2)C1 [Example 221, (2R)-1-[5-(7H-pyrrolo[2,3-d]pyrimidin-4-yl)-5,8-diazaspiro[2.6]nonane-8-carbonyl]pyrrolidine-2-carbonitrile]	100 to 1000	< 100	100 to 1000
N#C[C@@H]1CCCN1C(=O)N1CCN(c2ncnc3[nH]ccc23)CC2(CC2)C1 [Example 222, (2S)-1-[5-(7H-pyrrolo[2,3-d]pyrimidin-4-yl)-5,8-diazaspiro[2.6]nonane-8-carbonyl]pyrrolidine-2-carbonitrile]	100 to 1000	< 100	100 to 1000
CC(C)N(C)C(=O)N1CCN(c2ncnc3[nH]ccc23)CC2(CC2)C1 [Example 223, N-isopropyl-N-methyl-5-(7H-pyrrolo[2,3-d]pyrimidin-4-yl)-5,8-diazaspiro[2.6]nonane-8-carboxamide]	100 to 1000	100 to 1000	100 to 1000
CCN(CCC#N)C(=O)N1CCN(c2ncnc3[nH]ccc23)CC2(CC2)C1 [Example 224, N-(2-cyanoethyl)-N-ethyl-5-(7H-pyrrolo[2,3-d]pyrimidin-4-yl)-5,8-diazaspiro[2.6]nonane-8-carboxamide]	> 1000	100 to 1000	100 to 1000
N#CCCN(CCC#N)C(=O)N1CCN(c2ncnc3[nH]ccc23)CC2(CC2)C1 [Example 225, N,N-bis(2-cyanoethyl)-5-(7H-pyrrolo[2,3-d]pyrimidin-4-yl)-5,8-diazaspiro[2.6]nonane-8-carboxamide]	> 1000	100 to 1000	100 to 1000
O=C(Cc1nnn[nH]1)N1CCCN(c2ncnc3[nH]ccc23)CC12CC2 [Example 226, 1-[5-(7H-pyrrolo[2,3-d]pyrimidin-4-yl)-5,9-diazaspiro[2.6]nonan-9-yl]-2-(1H-tetrazol-5-yl)ethanone]	> 1000	100 to 1000	> 1000
O=C(c1cscn1)N1CCCN(c2ncnc3[nH]ccc23)CC12CC2 [Example 227, [5-(7H-pyrrolo[2,3-d]pyrimidin-4-yl)-5,9-diazaspiro[2.6]nonan-9-yl]-thiazol-4-yl-methanone]	100 to 1000	< 100	100 to 1000
O=C(c1nc[nH]n1)N1CCCN(c2ncnc3[nH]ccc23)CC12CC2 [Example 228, [5-(7H-pyrrolo[2,3-d]pyrimidin-4-yl)-5,9-diazaspiro[2.6]nonan-9-yl]-(1H-1,2,4-triazol-3-yl)methanone]	100 to 1000	100 to 1000	> 1000
Cc1sncc1C(=O)N1CCN(c2ncnc3[nH]ccc23)CC2(CC2)C1 [Example 229, (5-methylisothiazol-4-yl)-[5-(7H-pyrrolo[2,3-d]pyrimidin-4-yl)-5,8-diazaspiro[2.6]nonan-8-yl]methanone]	100 to 1000	100 to 1000	> 1000
Cc1sncc1C(=O)N1CCCN(c2ncnc3[nH]ccc23)CC12CC2 [Example 230, (5-methylisothiazol-4-yl)-[5-(7H-pyrrolo[2,3-d]pyrimidin-4-yl)-5,9-diazaspiro[2.6]nonan-9-yl]methanone]	100 to 1000	< 100	100 to 1000
O=C(c1n[nH]c(Cl)n1)N1CCN(c2ncnc3[nH]ccc23)CC2(CC2)C1 [Example 231, (5-chloro-1H-1,2,4-triazol-3-yl)-[5-(7H-pyrrolo[2,3-d]pyrimidin-4-yl)-5,8-diazaspiro[2.6]nonan-8-yl]methanone]	100 to 1000	100 to 1000	100 to 1000
O=C(c1n[nH]c(Cl)n1)N1CCCN(c2ncnc3[nH]ccc23)CC12CC2 [Example 232, (5-chloro-1H-1,2,4-triazol-3-yl)-[5-(7H-pyrrolo[2,3-d]pyrimidin-4-yl)-5,9-diazaspiro[2.6]nonan-9-yl]methanone]	100 to 1000	< 100	100 to 1000
